# Measured values taken from patent US10265275B2, “Phenolic coatings and methods of making and using same” (Northwestern University, priority 2013, dated 2019).
# Like-named read-outs stand apart in the source and are kept apart here.
# Assay: Potentiometric titration, first pKa
# Format: physicochemical
# Description: In order to investigate the relationship between coating pH and deprotonation, coating precursor molecules were studied via potentiometric titrations. A solution of tannic acid was made by dissolving ˜1 mg in 2 mL of 100 mM KCl in a glass test tube to perform the titration. The TA and KOH solutions were degassed by aggressively sparging argon for no less than 30 min. Base was titrated in 1.0 μL increments, and the total amount added was 250 μL. If oxygen is purged correctly, the phenolic solution should display little or no change in color throughout the titration. The first pKa was calculated by initially plotting the volume of base added versus pH. The first derivative of this curve was then plotted as a function of pH, and the pKa was calculated by determining the pH associated with any local maxima.
# [1] = aqueous 100 mM KCl solution, 100 mM KCl, degassed, KOH titration, read-out: First pKa
# [2] = first pKa minus optimal coating pH
Compound,pKa − pH,pKa [1],"First pKa (100 mM KCl, degassed, KOH titration)",pKa − pH [2],pKa
"Oc1cccc(O)c1O [PG, 1,2,3-trihydroxybenzene]",2.3,9.3,–,–,–
epigallocatechin-3-gallate [EGCG],–,–,8.1,1.1,–
"Oc1ccc(O)c(O)c1 [HHQ, hydroxyhydroquinone]",3.1,–,–,–,9.1
"Oc1ccccc1O [Catechol, catechol]",–,9.5,–,1.5,–
"O=C(OC[C@H]1O[C@@H](OC(=O)c2cc(O)c(O)c(OC(=O)c3cc(O)c(O)c(O)c3)c2)[C@H](OC(=O)c2cc(O)c(O)c(OC(=O)c3cc(O)c(O)c(O)c3)c2)[C@@H](OC(=O)c2cc(O)c(O)c(OC(=O)c3cc(O)c(O)c(O)c3)c2)[C@@H]1OC(=O)c1cc(O)c(O)c(OC(=O)c2cc(O)c(O)c(O)c2)c1)c1cc(O)c(O)c(OC(=O)c2cc(O)c(O)c(O)c2)c1 [Tannic acid, tannic acid]",0.7,–,–,–,7.7
